# Laboratory results reported in article PMC7466059, “Synthesis and Ex Vivo Trans-Corneal Permeation of Penetratin Analogues as Ophthalmic Carriers: Preliminary Results” (Pharmaceutics, 2020).
# Like-named read-outs stand apart in the source and are kept apart here. Marks after values point to notes of the source that are not given here. Peptide text beside a SMILES is read from it. * marks the point of attachment. 5FAM = O=C1OC2(c3ccc(O)cc3Oc3cc(O)ccc32)c2ccc(C(=O)*)cc21
# How the values were obtained:
# [1] = FAM alone, trans-corneal; cited from earlier work
# Text: Finally, also the propensity of CPPs to enter corneal epithelium and endothelium cells should be considered.
# [2] = Ex vivo trans-corneal permeation, Franz-type diffusion cells; format: in vitro ADME, pig; details: ex vivo porcine cornea, area 0.2 cm^2, 37 °C, 6 h, fluorescence 485/535 nm, mean ± sd
# Method: (§1) Permeation experiments across freshly porcine cornea were performed following a method previously reported. In detail, transparent porcine corneas were isolated from fresh pig eyes (breed: Large White and Landrace; weight: 145–190 kg; age: 10–11 months; sex: female and male; Macello Annoni SpA, Busseto, Italy) and supported by glass Franz-type diffusion cells, having a permeation area of 0.2 cm^2. The epithelial side was in contact with the donor, i.e., 200 µL of aqueous solution containing a peptide: each concentration and solvent are indicated in Table 2. Donor concentrations were selected based on different solubility and analytical sensitivity (see paragraph 2.4 and Table S2). For some peptides, the solubilization was improved by dissolving the raw material using small amount of DMSO (final concentration less than 5% v/v), and then PBS or PBS+0.1% BSA were alternately added.
# To fill the receptor compartment, around 4 mL of degassed PBS or PBS+0.1% BSA was used (see Table 2), being kept at 37 °C and maintained under magnetic stirring to avoid any boundary layer effect. The presence of 0.1% BSA aids in preventing peptides aggregation. Permeation experiments lasted 6 h, and for quantification purposes, 200 µL of the receiving solution were collected every hour and reintegrated with fresh medium. Each condition was replicated between 3 and 4 times, using cornea isolated from different animals.
# Permeation samples were analysed without preliminary separation by fluorescence, using a Spark 10M microplate reader (Tecan Trading AG, Switzerland); excitation and emission wavelengths were 485 nm and 535 nm, respectively. Standard solutions were prepared in PBS pH 7.4 or in PBS containing BSA 0.1%. RSD% (relative standard deviation %) was lower than 10%, while ER% (relative error %) resulted lower than 15%.
# The amount of CPP permeated across the cornea (nmol/cm^2) is plotted against time (hour): the slope of the regression line at steady state represents the trans-corneal flux J (nmol/cm^2 h). The apparent permeability coefficient Papp (cm/s) is then calculated as Equation (1): Papp = J/c(1) being c (µM) the concentration of the donor solution. Papp allows for a direct comparison among permeants studied using different donor concentrations.
# [3] = Aqueous solubility / precipitation of donor solutions (observation); format: physicochemical; details: for solubilization of donor solution: 250 µM, PBS pH 7.4; for solubility in aqueous medium: fluorescein (FL) as cargo, not used in ex vivo permeation experiments
# Method: as §1
# We have also analysed if the sequence reciprocity (GG vs. R) plays a role in the diffusivity of the peptide across the cornea and we found no difference between most of the paired sequences, namely PNT-GG 2 vs. PNT-R 4, PNT-GG 3 vs. PNT-R 3, PNT-GG 4 vs. PNT-R 2, PNT-GG 5 vs. PNT-R 1 (Figure 3b). This confirms that the sequence is only one of the factors affecting the translocation: in fact, even CPP concentration, type of cells, and cargo can strongly influence CPP final behavior/activity. […] Differently, the presence of FAM, a more hydrophilic fluorescent probe, allowed for aqueous solutions ranging in concentration from 25 to 250 µM (Table 2).
# [4] = donor 100 µM, 200 µL, donor and receiving solutions PBS+BSA 0.1% pH 7.4, n = 3
# [5] = donor 25 µM, 200 µL, donor and receiving solutions PBS pH 7.4, n = 4
# [6] = donor 250 µM, 200 µL, donor and receiving solutions PBS pH 7.4, n = 3-4
compound,measurement,setting,value
5(6)-Carboxyfluorescein [FAM],Papp (apparent permeability coefficient),[1],0.29 ± 0.08 × 10^−6 cm/s
CSCC[C@H](NC(=O)[C@H](CCCNC(=N)N)NC(=O)[C@H](CCCNC(=N)N)NC(=O)[C@H](CC(N)=O)NC(=O)CNC(=O)CNC(=O)c1ccc2c(c1)C(=O)OC21c2ccc(O)cc2Oc2cc(O)ccc21)C(=O)N[C@@H](CCCCN)C(=O)N[C@@H](Cc1c[nH]c2ccccc12)C(=O)N[C@@H](CCCCN)C(=O)N[C@@H](CCCCN)C(N)=O [PNT-GG 1] (5FAM-GGNRRMKWKK-NH2),Papp (apparent permeability coefficient),"[2]; epithelial side to donor, donor 100 µM, 200 µL, donor and receiving solutions PBS pH 7.4, hourly sampling, n = 3-4",1.33 ± 0.11 × 10^−6 cm/s
CSCC[C@H](NC(=O)[C@H](CCCNC(=N)N)NC(=O)[C@H](CCCNC(=N)N)NC(=O)[C@H](CC(N)=O)NC(=O)[C@H](CCC(N)=O)NC(=O)[C@H](Cc1ccccc1)NC(=O)CNC(=O)CNC(=O)c1ccc2c(c1)C(=O)OC21c2ccc(O)cc2Oc2cc(O)ccc21)C(=O)N[C@@H](CCCCN)C(=O)N[C@@H](Cc1c[nH]c2ccccc12)C(N)=O [PNT-GG 2] (5FAM-GGFQNRRMKW-NH2),Papp (apparent permeability coefficient),[2]; [4],0.55 ± 0.57 × 10^−6 cm/s
CC[C@H](C)[C@H](NC(=O)CNC(=O)CNC(=O)c1ccc2c(c1)C(=O)OC21c2ccc(O)cc2Oc2cc(O)ccc21)C(=O)N[C@@H](Cc1c[nH]c2ccccc12)C(=O)N[C@@H](Cc1ccccc1)C(=O)N[C@@H](CCC(N)=O)C(=O)N[C@@H](CC(N)=O)C(=O)N[C@@H](CCCNC(=N)N)C(=O)N[C@@H](CCCNC(=N)N)C(=O)N[C@@H](CCSC)C(N)=O [PNT-GG 3] (5FAM-GGIWFQNRRM-NH2),Papp (apparent permeability coefficient),[2]; [4],0.44 ± 0.50 × 10^−6 cm/s
CC[C@H](C)[C@H](NC(=O)CNC(=O)CNC(=O)c1ccc2c(c1)C(=O)OC21c2ccc(O)cc2Oc2cc(O)ccc21)C(=O)N[C@@H](CCCCN)C(=O)N[C@H](C(=O)N[C@@H](Cc1c[nH]c2ccccc12)C(=O)N[C@@H](Cc1ccccc1)C(=O)N[C@@H](CCC(N)=O)C(=O)N[C@@H](CC(N)=O)C(=O)N[C@@H](CCCNC(=N)N)C(N)=O)[C@@H](C)CC [PNT-GG 4] (5FAM-GGIKIWFQNR-NH2),Papp (apparent permeability coefficient),[2]; [4],0.34 ± 0.14 × 10^−6 cm/s
CC[C@H](C)[C@H](NC(=O)[C@H](CCCCN)NC(=O)[C@@H](NC(=O)[C@H](CCC(N)=O)NC(=O)[C@H](CCCNC(=N)N)NC(=O)CNC(=O)CNC(=O)c1ccc2c(c1)C(=O)OC21c2ccc(O)cc2Oc2cc(O)ccc21)[C@@H](C)CC)C(=O)N[C@@H](Cc1c[nH]c2ccccc12)C(=O)N[C@@H](Cc1ccccc1)C(=O)N[C@@H](CCC(N)=O)C(N)=O [PNT-GG 5] (5FAM-GGRQIKIWFQ-NH2),Papp (apparent permeability coefficient),"[2]; donor 100 µM in PBS pH 7.4, receiving solution PBS+BSA 0.1% pH 7.4, n = 3",0.50 ± 0.70 ^d × 10^−6 cm/s
same,Papp (apparent permeability coefficient),[2]; [4],0.24 ± 0.40 ^d × 10^−6 cm/s
CC[C@H](C)[C@H](NC(=O)[C@H](CCCCN)NC(=O)[C@@H](NC(=O)[C@H](CCC(N)=O)NC(=O)[C@H](CCCNC(=N)N)NC(=O)CNC(=O)CNC(=O)c1ccc2c(c1)C(=O)OC21c2ccc(O)cc2Oc2cc(O)ccc21)[C@@H](C)CC)C(=O)N[C@@H](Cc1c[nH]c2ccccc12)C(=O)N[C@@H](Cc1ccccc1)C(=O)N[C@@H](CCC(N)=O)C(=O)N[C@@H](CC(N)=O)C(=O)N[C@@H](CCCNC(=N)N)C(=O)N[C@@H](CCCNC(=N)N)C(=O)N[C@@H](CCSC)C(=O)N[C@@H](CCCCN)C(=O)N[C@@H](Cc1c[nH]c2ccccc12)C(=O)N[C@@H](CCCCN)C(=O)N[C@@H](CCCCN)C(N)=O [PNT-GG],Papp (apparent permeability coefficient),[2]; [5],4.41 ± 2.93 × 10^−6 cm/s
same,solubilization of donor solution,[3],complete solubilization
CC[C@H](C)[C@H](NC(=O)[C@H](CCCCN)NC(=O)[C@@H](NC(=O)[C@H](Cc1c[nH]c2ccccc12)NC(=O)[C@H](Cc1ccccc1)NC(=O)[C@H](CCC(N)=O)NC(=O)CNC(=O)CNC(=O)c1ccc2c(c1)C(=O)OC21c2ccc(O)cc2Oc2cc(O)ccc21)[C@@H](C)CC)C(=O)N[C@@H](CCC(N)=O)C(=O)N[C@@H](CCCNC(=N)N)C(N)=O [PNT-R 1] (5FAM-GGQFWIKIQR-NH2),Papp (apparent permeability coefficient),[2]; [6],0.93 ± 0.53 × 10^−6 cm/s
CC[C@H](C)[C@H](NC(=O)[C@H](CCCCN)NC(=O)[C@@H](NC(=O)[C@H](Cc1c[nH]c2ccccc12)NC(=O)[C@H](Cc1ccccc1)NC(=O)[C@H](CCC(N)=O)NC(=O)[C@H](CC(N)=O)NC(=O)[C@H](CCCNC(=N)N)NC(=O)CNC(=O)CNC(=O)c1ccc2c(c1)C(=O)OC21c2ccc(O)cc2Oc2cc(O)ccc21)[C@@H](C)CC)C(N)=O [PNT-R 2] (5FAM-GGRNQFWIKI-NH2),Papp (apparent permeability coefficient),[2]; [6],0.23 ± 0.16 × 10^−6 cm/s
CC[C@H](C)[C@H](NC(=O)[C@H](Cc1c[nH]c2ccccc12)NC(=O)[C@H](Cc1ccccc1)NC(=O)[C@H](CCC(N)=O)NC(=O)[C@H](CC(N)=O)NC(=O)[C@H](CCCNC(=N)N)NC(=O)[C@H](CCCNC(=N)N)NC(=O)[C@H](CCSC)NC(=O)CNC(=O)CNC(=O)c1ccc2c(c1)C(=O)OC21c2ccc(O)cc2Oc2cc(O)ccc21)C(N)=O [PNT-R 3] (5FAM-GGMRRNQFWI-NH2),Papp (apparent permeability coefficient),[2]; [6],0.002 ± 0.004 × 10^−6 cm/s
CSCC[C@H](NC(=O)[C@H](CCCCN)NC(=O)[C@H](Cc1c[nH]c2ccccc12)NC(=O)CNC(=O)CNC(=O)c1ccc2c(c1)C(=O)OC21c2ccc(O)cc2Oc2cc(O)ccc21)C(=O)N[C@@H](CCCNC(=N)N)C(=O)N[C@@H](CCCNC(=N)N)C(=O)N[C@@H](CC(N)=O)C(=O)N[C@@H](CCC(N)=O)C(=O)N[C@@H](Cc1ccccc1)C(N)=O [PNT-R 4] (5FAM-GGWKMRRNQF-NH2),Papp (apparent permeability coefficient),[2]; [6],0.13 ± 0.07 × 10^−6 cm/s
CSCC[C@H](NC(=O)[C@H](CCCCN)NC(=O)[C@H](Cc1c[nH]c2ccccc12)NC(=O)[C@H](CCCCN)NC(=O)[C@H](CCCCN)NC(=O)CNC(=O)CNC(=O)c1ccc2c(c1)C(=O)OC21c2ccc(O)cc2Oc2cc(O)ccc21)C(=O)N[C@@H](CCCNC(=N)N)C(=O)N[C@@H](CCCNC(=N)N)C(=O)N[C@@H](CC(N)=O)C(N)=O [PNT-R 5] (5FAM-GGKKWKMRRN-NH2),Papp (apparent permeability coefficient),[2]; [6],0.05 ± 0.01 × 10^−6 cm/s
CC[C@H](C)[C@H](NC(=O)[C@H](CCCCN)NC(=O)[C@@H](NC(=O)[C@H](Cc1c[nH]c2ccccc12)NC(=O)[C@H](Cc1ccccc1)NC(=O)[C@H](CCC(N)=O)NC(=O)[C@H](CC(N)=O)NC(=O)[C@H](CCCNC(=N)N)NC(=O)[C@H](CCCNC(=N)N)NC(=O)[C@H](CCSC)NC(=O)[C@H](CCCCN)NC(=O)[C@H](Cc1c[nH]c2ccccc12)NC(=O)[C@H](CCCCN)NC(=O)[C@H](CCCCN)NC(=O)CNC(=O)CNC(=O)c1ccc2c(c1)C(=O)OC21c2ccc(O)cc2Oc2cc(O)ccc21)[C@@H](C)CC)C(=O)N[C@@H](CCC(N)=O)C(=O)N[C@@H](CCCNC(=N)N)C(N)=O [PNT-R] (5FAM-GGKKWKMRRNQFWIKIQR-NH2),Papp (apparent permeability coefficient),[2]; [5],7.08 ± 6.66 × 10^−6 cm/s
same,solubilization of donor solution,[3],complete solubilization
"FL-GG-KKWKMRRNQFWIKIQR [PNT-R-FL, fluorescein-GG-labelled reversed penetratin, C-terminal amide]",solubility in aqueous medium,[3],poorly soluble
"FL-GG-WKMRRNQF [PNT-R-4-FL, fluorescein-GG-labelled analogue of PNT-R 4, C-terminal amide]",solubility in aqueous medium,[3],poorly soluble
